Data taken from patent publication US11697648B2, “Fused pyrimidine pyridinone compounds as JAK inhibitors” (THERAVANCE BIOPHARMA R&D IP, LLC, priority 2019, dated 2023).

What was measured:
JAK2 = JAK2 (Homo sapiens (Human), UniProt O60674); assay: Biochemical JAK2 kinase assay (LanthaScreen)
Outline: (§1)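 GST-JAK + GFP-STAT1 peptide, HEPES pH 7.5/MgCl2/EGTA/Brij-35 buffer; cpd preincubation 1 h RT; ATP start, 1 h RT; stop with 10 mM EDTA + 2 nM Tb-anti-pSTAT1; TR-FRET 520/495. 4-parameter IC50 → pKi (Cheng-Prusoff).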

JAK1 = JAK1 (Homo sapiens (Human), UniProt P23458); assay: Biochemical JAK1 kinase assay (LanthaScreen)
JAK1, sequence (P23458 whole entry): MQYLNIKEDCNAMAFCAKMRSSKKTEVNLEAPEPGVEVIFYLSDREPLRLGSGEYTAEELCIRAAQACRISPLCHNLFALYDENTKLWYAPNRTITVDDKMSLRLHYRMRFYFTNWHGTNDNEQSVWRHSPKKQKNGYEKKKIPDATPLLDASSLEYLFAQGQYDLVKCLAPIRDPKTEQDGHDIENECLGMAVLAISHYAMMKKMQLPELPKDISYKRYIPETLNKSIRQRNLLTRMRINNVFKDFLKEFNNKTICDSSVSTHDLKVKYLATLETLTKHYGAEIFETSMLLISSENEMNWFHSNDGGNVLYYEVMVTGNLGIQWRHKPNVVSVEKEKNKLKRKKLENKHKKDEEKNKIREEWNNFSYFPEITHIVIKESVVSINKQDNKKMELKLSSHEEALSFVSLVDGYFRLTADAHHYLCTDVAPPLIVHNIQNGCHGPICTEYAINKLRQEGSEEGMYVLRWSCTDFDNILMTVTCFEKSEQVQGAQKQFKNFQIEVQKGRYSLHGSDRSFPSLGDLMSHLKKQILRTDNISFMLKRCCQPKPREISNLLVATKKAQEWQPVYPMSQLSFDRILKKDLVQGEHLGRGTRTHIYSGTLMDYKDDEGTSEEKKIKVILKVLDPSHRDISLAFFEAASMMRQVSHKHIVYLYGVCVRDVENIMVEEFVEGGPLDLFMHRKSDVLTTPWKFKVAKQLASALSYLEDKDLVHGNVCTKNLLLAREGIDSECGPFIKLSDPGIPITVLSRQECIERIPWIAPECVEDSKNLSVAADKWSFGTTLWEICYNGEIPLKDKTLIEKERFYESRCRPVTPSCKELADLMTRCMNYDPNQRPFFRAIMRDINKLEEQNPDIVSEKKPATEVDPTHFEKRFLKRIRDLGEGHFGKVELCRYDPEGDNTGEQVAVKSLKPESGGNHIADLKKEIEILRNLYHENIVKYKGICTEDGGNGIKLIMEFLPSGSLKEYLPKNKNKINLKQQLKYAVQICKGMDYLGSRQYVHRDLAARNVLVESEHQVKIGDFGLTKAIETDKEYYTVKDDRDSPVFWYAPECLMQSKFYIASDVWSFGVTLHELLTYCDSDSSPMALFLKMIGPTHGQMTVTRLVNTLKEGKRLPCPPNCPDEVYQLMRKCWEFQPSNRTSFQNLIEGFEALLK
Outline: as §1

JAK3 = JAK3 (Homo sapiens (Human), UniProt P52333); assay: Biochemical JAK3 kinase assay (LanthaScreen); conditions: for JAK3 (pKi)-JAK1 (pKi): selectivity JAK3 over JAK1, difference of pKi
JAK3, sequence (P52333 whole entry): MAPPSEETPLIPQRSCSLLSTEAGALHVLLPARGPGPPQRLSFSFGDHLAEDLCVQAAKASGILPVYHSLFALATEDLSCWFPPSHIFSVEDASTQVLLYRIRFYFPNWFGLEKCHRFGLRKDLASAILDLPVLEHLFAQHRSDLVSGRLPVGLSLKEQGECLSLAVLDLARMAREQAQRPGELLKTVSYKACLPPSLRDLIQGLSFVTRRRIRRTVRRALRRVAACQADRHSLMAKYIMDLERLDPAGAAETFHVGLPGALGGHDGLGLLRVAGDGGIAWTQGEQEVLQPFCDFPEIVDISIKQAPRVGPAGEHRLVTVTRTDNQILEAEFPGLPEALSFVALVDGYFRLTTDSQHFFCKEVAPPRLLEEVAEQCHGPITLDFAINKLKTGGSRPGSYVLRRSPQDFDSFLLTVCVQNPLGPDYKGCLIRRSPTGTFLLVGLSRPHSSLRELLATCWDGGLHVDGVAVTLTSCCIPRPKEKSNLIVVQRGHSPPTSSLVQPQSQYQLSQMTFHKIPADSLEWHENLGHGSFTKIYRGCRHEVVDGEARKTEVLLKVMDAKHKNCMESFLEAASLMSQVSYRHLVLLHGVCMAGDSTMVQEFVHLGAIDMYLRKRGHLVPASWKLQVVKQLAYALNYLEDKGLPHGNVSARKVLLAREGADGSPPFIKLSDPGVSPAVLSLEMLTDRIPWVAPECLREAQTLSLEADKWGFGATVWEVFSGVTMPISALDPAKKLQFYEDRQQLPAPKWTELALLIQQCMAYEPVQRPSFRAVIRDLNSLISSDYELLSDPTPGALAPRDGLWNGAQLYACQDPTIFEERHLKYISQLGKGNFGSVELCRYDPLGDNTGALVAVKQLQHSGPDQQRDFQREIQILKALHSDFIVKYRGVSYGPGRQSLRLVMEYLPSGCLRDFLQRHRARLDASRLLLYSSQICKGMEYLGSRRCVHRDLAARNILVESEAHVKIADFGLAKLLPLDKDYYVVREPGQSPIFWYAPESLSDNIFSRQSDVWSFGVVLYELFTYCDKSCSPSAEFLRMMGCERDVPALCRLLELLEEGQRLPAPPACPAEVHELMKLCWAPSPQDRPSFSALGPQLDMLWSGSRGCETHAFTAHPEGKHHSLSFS
Outline: as §1

[1] = system: IL-2 stimulated STAT5 phosphorylation in Tall-1 human T cell line (JAK3); assay: Cellular JAK3 potency assay: inhibition of IL-2 stimulated pSTAT5 in Tall-1 T cells; format: cell-based; conditions: IL-2 stimulated pSTAT5, Tall-1 T cells
Outline: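 AlphaLISA SureFire Ultra measures STAT5 Tyr694/699 phosphorylation in lysed Tall-1 human T cells. Cells were exposed to compound for 1 h at 37 °C before a 30 min IL-2 challenge (300 ng/ml final). Values are pIC50 means with standard deviation from signal-versus-concentration curves.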

Tyk2 = Tyk2 (Homo sapiens (Human), UniProt P29597); assay: Biochemical Tyk2 kinase assay (LanthaScreen)
Tyk2, sequence (P29597 whole entry): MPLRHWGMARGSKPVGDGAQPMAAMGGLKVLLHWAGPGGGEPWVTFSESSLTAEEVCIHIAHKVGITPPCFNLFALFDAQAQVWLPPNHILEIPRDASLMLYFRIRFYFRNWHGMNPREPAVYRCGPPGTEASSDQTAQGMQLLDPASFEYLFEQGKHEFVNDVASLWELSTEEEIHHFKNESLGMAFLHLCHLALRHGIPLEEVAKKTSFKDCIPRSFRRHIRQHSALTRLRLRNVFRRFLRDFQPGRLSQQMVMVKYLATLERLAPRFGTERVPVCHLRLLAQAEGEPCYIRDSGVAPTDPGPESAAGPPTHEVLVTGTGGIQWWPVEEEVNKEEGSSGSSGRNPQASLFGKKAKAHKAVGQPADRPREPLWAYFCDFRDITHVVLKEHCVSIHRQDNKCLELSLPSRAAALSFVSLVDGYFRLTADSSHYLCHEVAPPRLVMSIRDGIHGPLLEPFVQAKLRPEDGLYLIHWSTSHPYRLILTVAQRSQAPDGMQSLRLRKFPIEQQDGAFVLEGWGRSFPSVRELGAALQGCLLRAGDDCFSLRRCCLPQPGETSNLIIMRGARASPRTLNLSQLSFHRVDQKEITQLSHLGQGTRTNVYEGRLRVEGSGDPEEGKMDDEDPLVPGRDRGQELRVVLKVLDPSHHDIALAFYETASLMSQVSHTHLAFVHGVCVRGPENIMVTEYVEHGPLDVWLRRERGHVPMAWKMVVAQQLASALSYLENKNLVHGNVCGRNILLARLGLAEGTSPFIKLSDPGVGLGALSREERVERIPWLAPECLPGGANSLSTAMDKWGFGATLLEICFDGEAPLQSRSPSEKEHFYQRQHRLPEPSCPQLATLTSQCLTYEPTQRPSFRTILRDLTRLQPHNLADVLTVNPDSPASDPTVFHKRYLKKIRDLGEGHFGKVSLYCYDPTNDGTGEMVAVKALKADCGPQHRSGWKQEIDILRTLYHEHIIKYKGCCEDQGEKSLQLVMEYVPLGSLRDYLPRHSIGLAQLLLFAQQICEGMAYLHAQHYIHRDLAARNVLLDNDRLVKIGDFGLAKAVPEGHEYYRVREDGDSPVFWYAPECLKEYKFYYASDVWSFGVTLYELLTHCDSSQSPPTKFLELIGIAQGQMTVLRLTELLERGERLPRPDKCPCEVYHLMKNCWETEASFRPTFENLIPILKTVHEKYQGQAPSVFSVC
Outline: as §1

JAK2, sequence (O60674 whole entry): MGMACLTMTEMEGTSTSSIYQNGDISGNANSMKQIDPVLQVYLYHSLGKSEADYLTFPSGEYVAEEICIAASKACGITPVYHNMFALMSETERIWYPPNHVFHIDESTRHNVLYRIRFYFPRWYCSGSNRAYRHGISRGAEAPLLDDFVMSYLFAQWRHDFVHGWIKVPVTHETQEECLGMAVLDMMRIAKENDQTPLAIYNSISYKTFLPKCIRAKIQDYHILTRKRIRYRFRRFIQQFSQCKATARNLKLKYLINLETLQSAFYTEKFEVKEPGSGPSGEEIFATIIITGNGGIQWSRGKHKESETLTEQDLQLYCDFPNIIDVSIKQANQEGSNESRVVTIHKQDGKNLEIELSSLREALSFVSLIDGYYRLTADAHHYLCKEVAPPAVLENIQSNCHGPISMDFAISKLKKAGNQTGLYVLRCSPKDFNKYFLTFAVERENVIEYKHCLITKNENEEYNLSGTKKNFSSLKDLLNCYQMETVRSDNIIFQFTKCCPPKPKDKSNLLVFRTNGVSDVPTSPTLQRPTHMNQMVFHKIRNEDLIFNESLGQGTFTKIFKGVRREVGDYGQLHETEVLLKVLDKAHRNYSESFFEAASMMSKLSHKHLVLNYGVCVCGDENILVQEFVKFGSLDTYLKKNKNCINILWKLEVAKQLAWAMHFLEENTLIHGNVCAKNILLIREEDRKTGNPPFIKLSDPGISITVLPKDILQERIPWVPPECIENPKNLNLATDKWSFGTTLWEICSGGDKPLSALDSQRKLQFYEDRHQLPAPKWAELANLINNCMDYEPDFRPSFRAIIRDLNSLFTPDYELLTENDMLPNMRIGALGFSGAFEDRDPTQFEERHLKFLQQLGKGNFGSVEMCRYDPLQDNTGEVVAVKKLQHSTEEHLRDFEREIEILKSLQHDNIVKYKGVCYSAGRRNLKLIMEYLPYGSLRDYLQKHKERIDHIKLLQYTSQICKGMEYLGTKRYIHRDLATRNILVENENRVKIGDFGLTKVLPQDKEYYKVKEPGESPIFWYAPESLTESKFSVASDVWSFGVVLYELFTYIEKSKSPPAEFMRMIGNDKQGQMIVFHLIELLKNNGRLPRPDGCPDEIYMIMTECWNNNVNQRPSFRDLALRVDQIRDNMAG

Row | Compound | JAK 2 (pKi) (JAK2) | JAK 1 (pKi) (JAK1) | JAK 3 (pKi) (JAK3) | JAK3 (pKi)-JAK1 (pKi) (JAK3) | Tall-1 (pIC50) [1] | Tyk 2 (pKi) (Tyk2)
1 | C=CC(=O)N1CCN(CCn2c(=O)ccc3cnc(Nc4ccc(C5CCN(C)CC5)cc4)nc32)CC1 [Example 87] | E (E represents a pKi value of 7 or below (Ki of 100 nM or above)) | E (E represents a pKi value of 7 or below (Ki of 100 nM or above)) | B (B represents pKi value between 9 and 10 (Ki between 1 nM and 0.1 nM)) | A (A represents a value of 3 or above) | A (A represents a pIC50 value≥7.5 (IC50≤32 nM)) | E (E represents a pKi value of 7 or below (Ki of 100 nM or above))
2 | C=CC(=O)N1CC(CCn2c(=O)ccc3cnc(Nc4ccc(N5CCN(C(=O)NC)CC5)cc4)nc32)C1 [Example 93] | E (E represents a pKi value of 7 or below (Ki of 100 nM or above)) | E (E represents a pKi value of 7 or below (Ki of 100 nM or above)) | A (A represents a pKi value≥10 (Ki≤0.1 nM)) | A (A represents a value of 3 or above) | B (B represents a pC50 value between 6.7 (included) and 7.5 (IC50 between 200 nM and 32 nM)) | E (E represents a pKi value of 7 or below (Ki of 100 nM or above))
3 | C=CC(=O)N1CC(CCn2c(=O)ccc3cnc(Nc4ccc(N5CCN(S(=O)(=O)N(C)C)CC5)cc4)nc32)C1 [Example 97] | E (E represents a pKi value of 7 or below (Ki of 100 nM or above)) | E (E represents a pKi value of 7 or below (Ki of 100 nM or above)) | B (B represents pKi value between 9 and 10 (Ki between 1 nM and 0.1 nM)) | A (A represents a value of 3 or above) | A (A represents a pIC50 value≥7.5 (IC50≤32 nM)) | E (E represents a pKi value of 7 or below (Ki of 100 nM or above))
4 | C=CC(=O)N1CC(CCn2c(=O)ccc3cnc(Nc4ccc(N5CCN(C(=O)CC(C)C)CC5)cc4)nc32)C1 [Example 103] | E (E represents a pKi value of 7 or below (Ki of 100 nM or above)) | E (E represents a pKi value of 7 or below (Ki of 100 nM or above)) | A (A represents a pKi value≥10 (Ki≤0.1 nM)) | A (A represents a value of 3 or above) | A (A represents a pIC50 value≥7.5 (IC50≤32 nM)) | E (E represents a pKi value of 7 or below (Ki of 100 nM or above))
5 | C=CC(=O)N1CC(CCn2c(=O)ccc3cnc(Nc4ccc(N5CCN(C(=O)C(C)(C)C)CC5)cc4)nc32)C1 [Example 104] | E (E represents a pKi value of 7 or below (Ki of 100 nM or above)) | E (E represents a pKi value of 7 or below (Ki of 100 nM or above)) | A (A represents a pKi value≥10 (Ki≤0.1 nM)) | A (A represents a value of 3 or above) | A (A represents a pIC50 value≥7.5 (IC50≤32 nM)) | E (E represents a pKi value of 7 or below (Ki of 100 nM or above))
6 | C=CC(=O)N1CC(CCn2c(=O)ccc3cnc(Nc4cccc(CN5CCN(C(=O)OC)CC5)c4)nc32)C1 [Example 111] | E (E represents a pKi value of 7 or below (Ki of 100 nM or above)) | E (E represents a pKi value of 7 or below (Ki of 100 nM or above)) | B (B represents pKi value between 9 and 10 (Ki between 1 nM and 0.1 nM)) | A (A represents a value of 3 or above) | B (B represents a pC50 value between 6.7 (included) and 7.5 (IC50 between 200 nM and 32 nM)) | E (E represents a pKi value of 7 or below (Ki of 100 nM or above))
7 | C=CC(=O)N1CC(CCn2c(=O)ccc3cnc(Nc4ccc(N5CCN(CCN6CCCCC6)CC5)cc4)nc32)C1 [Example 113] | E (E represents a pKi value of 7 or below (Ki of 100 nM or above)) | E (E represents a pKi value of 7 or below (Ki of 100 nM or above)) | B (B represents pKi value between 9 and 10 (Ki between 1 nM and 0.1 nM)) | A (A represents a value of 3 or above) | A (A represents a pIC50 value≥7.5 (IC50≤32 nM)) | E (E represents a pKi value of 7 or below (Ki of 100 nM or above))
8 | C=CC(=O)N1CC(CCn2c(=O)ccc3cnc(Nc4ccc(N5CCN(CC)CC5)cc4)nc32)C1 [Example 114] | E (E represents a pKi value of 7 or below (Ki of 100 nM or above)) | E (E represents a pKi value of 7 or below (Ki of 100 nM or above)) | A (A represents a pKi value≥10 (Ki≤0.1 nM)) | A (A represents a value of 3 or above) | A (A represents a pIC50 value≥7.5 (IC50≤32 nM)) | E (E represents a pKi value of 7 or below (Ki of 100 nM or above))
9 | C=CC(=O)N1CC(CCn2c(=O)ccc3cnc(Nc4ccc(N5CCN(C(C)CC)CC5)cc4)nc32)C1 (stereo not drawn) [Example 115] | E (E represents a pKi value of 7 or below (Ki of 100 nM or above)) | E (E represents a pKi value of 7 or below (Ki of 100 nM or above)) | B (B represents pKi value between 9 and 10 (Ki between 1 nM and 0.1 nM)) | A (A represents a value of 3 or above) | A (A represents a pIC50 value≥7.5 (IC50≤32 nM)) | E (E represents a pKi value of 7 or below (Ki of 100 nM or above))
10 | C=CC(=O)N1CC(CCn2c(=O)ccc3cnc(Nc4ccc(N5CCN(CCC6CCCCC6)CC5)cc4)nc32)C1 [Example 116] | E (E represents a pKi value of 7 or below (Ki of 100 nM or above)) | E (E represents a pKi value of 7 or below (Ki of 100 nM or above)) | B (B represents pKi value between 9 and 10 (Ki between 1 nM and 0.1 nM)) | B (B represents a value of 2.5 to 3) | B (B represents a pC50 value between 6.7 (included) and 7.5 (IC50 between 200 nM and 32 nM)) | E (E represents a pKi value of 7 or below (Ki of 100 nM or above))
11 | C=CC(=O)N1CC(CCn2c(=O)ccc3cnc(Nc4ccc(N5CCN(C6CC6)CC5)cc4)nc32)C1 [Example 118] | E (E represents a pKi value of 7 or below (Ki of 100 nM or above)) | E (E represents a pKi value of 7 or below (Ki of 100 nM or above)) | B (B represents pKi value between 9 and 10 (Ki between 1 nM and 0.1 nM)) | A (A represents a value of 3 or above) | B (B represents a pC50 value between 6.7 (included) and 7.5 (IC50 between 200 nM and 32 nM)) | E (E represents a pKi value of 7 or below (Ki of 100 nM or above))
12 | C=CC(=O)N1CC(CCn2c(=O)ccc3cnc(Nc4ccc(N5CCN(CC(F)(F)F)CC5)cc4)nc32)C1 [Example 119] | E (E represents a pKi value of 7 or below (Ki of 100 nM or above)) | E (E represents a pKi value of 7 or below (Ki of 100 nM or above)) | A (A represents a pKi value≥10 (Ki≤0.1 nM)) | A (A represents a value of 3 or above) | B (B represents a pC50 value between 6.7 (included) and 7.5 (IC50 between 200 nM and 32 nM)) | E (E represents a pKi value of 7 or below (Ki of 100 nM or above))
13 | C=CC(=O)N1CC(CCn2c(=O)ccc3cnc(Nc4ccc(N5CCN(C(C)C)CC5)cc4)nc32)C1 [Example 120] | E (E represents a pKi value of 7 or below (Ki of 100 nM or above)) | E (E represents a pKi value of 7 or below (Ki of 100 nM or above)) | B (B represents pKi value between 9 and 10 (Ki between 1 nM and 0.1 nM)) | A (A represents a value of 3 or above) | A (A represents a pIC50 value≥7.5 (IC50≤32 nM)) | E (E represents a pKi value of 7 or below (Ki of 100 nM or above))
14 | C=CC(=O)N1C[C@H](C)N(CCn2c(=O)ccc3cnc(Nc4cnn(C)c4)nc32)C[C@@H]1C [Example 121] | E (E represents a pKi value of 7 or below (Ki of 100 nM or above)) | E (E represents a pKi value of 7 or below (Ki of 100 nM or above)) | B (B represents pKi value between 9 and 10 (Ki between 1 nM and 0.1 nM)) | B (B represents a value of 2.5 to 3) | C (C represents a pIC50 value between 6 and 6.7 (IC50 between 1 μM and 200 nM)) | E (E represents a pKi value of 7 or below (Ki of 100 nM or above))
